From the NIST ThermoML archive (doi:10.1021/je400874d)
Numbers after ± are expanded uncertainties.

Experiments:
[1] = Molar enthalpy of transition or fusion; details: DSC
[2] = DTA; for Normal melting temperature: Crystal 1

| Molar enthalpy of transition or fusion ([1]; Crystal 1) | Molar enthalpy of transition or fusion ([1]; Crystal 2) | Molar enthalpy of transition or fusion ([1]; Crystal 3) | Normal melting temperature [2] | Triple point temperature ([2]; Crystal 2) | Triple point temperature ([2]; Crystal 3) | Molar enthalpy of transition or fusion ([1]; Crystal 4) | Molar enthalpy of transition or fusion ([1]; Crystal 5) | Triple point temperature ([2]; Crystal 4) | Triple point temperature ([2]; Crystal 5) | Compound |
| --- | --- | --- | --- | --- | --- | --- | --- | --- | --- | --- |
| 0.523 ± 0.043 kcal/mol | 4.01 ± 0.131 kcal/mol | 2.4 ± 0.086 kcal/mol | 435.5 ± 0.5 °C | 562.8 ± 0.5 K | 327.8 ± 0.5 K | – | – | – | – | CCCCCCCC(=O)[O-].[K+] [potassium octanoate] |
| 0.342 ± 0.0574 kcal/mol | 2.79 ± 0.115 kcal/mol | 1.31 ± 0.0574 kcal/mol | 399 ± 0.5 °C | 543.4 ± 0.5 K | 489 ± 1 K | 2.28 ± 0.115 kcal/mol | 2.96 ± 0.115 kcal/mol | 405.5 ± 0.5 K | 328.1 ± 0.5 K | CCCCCCCCCCCC(=O)[O-].[K+] [dodecanoic acid, potassium salt] |
| 2.79 ± 0.1 kcal/mol | 0.137 ± 0.0311 kcal/mol | – | 169.1 ± 0.5 °C | 415.8 ± 0.5 K | – | – | – | – | – | O=C[O-].[K+] [potassium formate] |
| 1.18 ± 0.0598 kcal/mol | 2.56 ± 0.0908 kcal/mol | 0.814 ± 0.0598 kcal/mol | 394 ± 0.5 °C | 623.1 ± 0.5 K | 550 ± 1 K | 0.166 ± 0.0311 kcal/mol | – | 454.7 ± 0.5 K | – | CCCC(=O)[O-].[K+] [potassium butanoate] |
| 0.469 ± 0.0478 kcal/mol | 3.47 ± 0.141 kcal/mol | 3.75 ± 0.141 kcal/mol | 431.4 ± 0.5 °C | 544.9 ± 0.5 K | 367.6 ± 0.5 K | – | – | – | – | CCCCCCCCC(=O)[O-].[K+] [potassium nonanoate] |
| 4.88 ± 0.134 kcal/mol | 0.429 ± 0.0263 kcal/mol | – | 363.8 ± 0.5 °C | 352.1 ± 0.5 K | – | – | – | – | – | CCC(=O)[O-].[K+] [potassium propanoate] |
| 1.14 ± 0.0669 kcal/mol | 4.16 ± 0.134 kcal/mol | 0.0938 ± 0.0311 kcal/mol | 443.6 ± 0.5 °C | 585.4 ± 0.5 K | 397.6 ± 0.5 K | – | – | – | – | CCCCC(=O)[O-].[K+] [potassium pentanoate] |
| 0.375 ± 0.0526 kcal/mol | 2.9 ± 0.108 kcal/mol | 2.15 ± 0.108 kcal/mol | 407.6 ± 0.5 °C | 542.5 ± 0.5 K | 410 ± 1 K | 2.95 ± 0.108 kcal/mol | – | 354.6 ± 0.5 K | – | CCCCCCCCCCC(=O)[O-].[K+] [potassium undecanoate] |
| 0.804 ± 0.0813 kcal/mol | 4.22 ± 0.12 kcal/mol | 3.14 ± 0.12 kcal/mol | 449 ± 1 °C | 571 ± 0.5 K | 333.7 ± 0.5 K | – | – | – | – | CCCCCCC(=O)[O-].[K+] [potassium heptanoate] |
| 0.402 ± 0.0502 kcal/mol | – | – | 418.4 ± 0.5 °C | 546.5 ± 0.5 K | 528 ± 1 K | 0.855 ± 0.0502 kcal/mol | 1.36 ± 0.1 kcal/mol | 383 ± 1 K | 346.3 ± 0.5 K | CCCCCCCCCC(=O)[O-].[K+] [potassium decanoate] |
| 3.92 ± 0.117 kcal/mol | 0.0704 ± 0.0234 kcal/mol | 0.0164 ± 0.0234 kcal/mol | 305.5 ± 0.5 °C | 425 ± 1 K | 331.8 ± 0.5 K | – | – | – | – | CC(=O)[O-].[K+] [potassium ethanoate] |
| 0.922 ± 0.0359 kcal/mol | 3.98 ± 0.11 kcal/mol | – | 450.5 ± 0.8 °C | 582.4 ± 0.5 K | – | – | – | – | – | CCCCCC(=O)[O-].[K+] [potassium hexanoate] |
